The structures appear in SMILES notation. Read-outs that look alike come from different tables or passages of the source.

Assay [1] concerns p52 (NF-kB2) nuclear translocation in HeLa cells. Briefly: p52 (NF-kB2) nuclear translocation assay in HeLa cells, anti-lymphotoxin beta receptor antibody stimulated (non-classical NF-kB signaling), high content imaging. The class given is cell-based. The note with it: 100 ng/mL anti-lymphotoxin beta receptor antibody for 5 hours, read-out: p52 HeLa Transloc Assay (IC50). A digest of the protocol: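 HeLa cells in 10% FBS medium were treated with compound (0.2% DMSO final) and stimulated with 100 ng/mL anti-lymphotoxin beta receptor antibody for 5 h. Fixed cells were immunostained for p52 and imaged with DRAQ5 nuclear stain. Translocation is the nuclear to cytoplasmic intensity ratio, […].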

The target of assay [2] is T1, nuclear factor-kappa B (NF-kB)-inducing kinase (NIK) (Homo sapiens, UniProt Q99558).
T1 construct: made in house; host or cells: baculovirus-infected insect cells
T1 sequence (Q99558 whole entry): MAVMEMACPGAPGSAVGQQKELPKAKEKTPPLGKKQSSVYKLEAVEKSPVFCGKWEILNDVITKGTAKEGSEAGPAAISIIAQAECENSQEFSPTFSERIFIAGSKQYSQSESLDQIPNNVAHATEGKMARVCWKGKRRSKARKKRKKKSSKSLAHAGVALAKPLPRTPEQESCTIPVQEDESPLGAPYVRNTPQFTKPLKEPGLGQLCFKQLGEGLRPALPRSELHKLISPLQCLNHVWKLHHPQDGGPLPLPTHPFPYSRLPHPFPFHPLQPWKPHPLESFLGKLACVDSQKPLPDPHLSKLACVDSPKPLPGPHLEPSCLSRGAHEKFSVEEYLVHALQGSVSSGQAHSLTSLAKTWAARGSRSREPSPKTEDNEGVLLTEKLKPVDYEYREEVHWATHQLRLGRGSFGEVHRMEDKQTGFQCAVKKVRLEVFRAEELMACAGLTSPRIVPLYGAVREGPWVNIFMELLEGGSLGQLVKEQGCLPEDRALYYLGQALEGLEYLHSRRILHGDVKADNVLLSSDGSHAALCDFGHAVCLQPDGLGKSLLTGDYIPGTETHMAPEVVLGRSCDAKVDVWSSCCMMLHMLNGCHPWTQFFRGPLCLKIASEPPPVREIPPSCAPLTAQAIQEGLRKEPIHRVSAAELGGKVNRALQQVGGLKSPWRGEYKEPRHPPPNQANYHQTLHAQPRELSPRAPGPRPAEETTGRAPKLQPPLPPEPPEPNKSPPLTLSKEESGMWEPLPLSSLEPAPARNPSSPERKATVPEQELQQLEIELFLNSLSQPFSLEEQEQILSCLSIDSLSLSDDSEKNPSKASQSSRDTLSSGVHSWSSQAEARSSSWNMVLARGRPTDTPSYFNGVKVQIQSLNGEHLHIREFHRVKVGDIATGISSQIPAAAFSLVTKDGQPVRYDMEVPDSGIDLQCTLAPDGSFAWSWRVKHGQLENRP
Put plainly: NIK enzyme inhibition assay (Transcreener ADP fluorescence polarization, NIK ADP-FP). The class given is biochemical. (In fluorescence polarisation assays a small probe gives low polarisation when free and higher when bound to something large.)

Assay [3] deals with REL-A (p65) nuclear translocation in HeLa cells. Put plainly: REL-A (p65) nuclear translocation assay in HeLa cells, TNF-α stimulated (classical NF-kB signaling), high content imaging. The class given is cell-based. The note with it: compound 4.5 h, then 10 ng/mL TNF-α for 30 minutes, read-out: REL-A HeLa Transloc Assay (IC50). The method in brief: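 HeLa cells in medium with 10% fetal bovine serum were exposed to compounds (0.2% DMSO final) for 4.5 hours, then stimulated with 10 ng/mL TNF-α for 30 minutes. After fixation in 4% paraformaldehyde and permeabilization with 0.1% Triton X-100, cells were stained with 400 ng/mL anti-REL-A (p65) antibody, an Alexa488 secondary and DRAQ5. Opera imaging quantified the nuclear-to-cytoplasmic signal ratio to give IC50.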

Take `CN1CC[C@@](O)(C#Cc2cccc(-c3cc(-n4cccn4)cc(C(N)=O)n3)c2)C1=O` [Example 52, 6-[3-[2-[(3R)-3-hydroxy-1-methyl-2-oxo-pyrrolidin-3-yl]ethynyl]phenyl]-4-pyrazol-1-yl-pyridine-2-carboxamide]: the IC50 in assay [1] (Homo sapiens) is 26 nM; in assay [3] (Homo sapiens, HeLa) it was not below 20000 nM. In addition, the Ki in assay [2] stood at 0.13 nM.
Taken in the same sequence, the figures for `CN1CC[C@@](O)(C#Cc2cccc(-c3cc(-c4ccnn4C)nc(C(N)=O)n3)c2)C1=O` [Example 53, 4-[3-[2-[(3R)-3-hydroxy-1-methyl-2-oxo-pyrrolidin-3-yl]ethynyl]phenyl]-6-(2-methylpyrazol-3-yl) pyrimidine-2-carboxamide] were 725 nM, not below 20000 nM and 0.67 nM.
For `CN1CC[C@@](O)(C#Cc2cccc(-c3nc(C(N)=O)c(N)cc3F)c2)C1=O` [Example 59, 3-amino-5-fluoro-6-[3-[2-[(3R)-3-hydroxy-1-methyl-2-oxo-pyrrolidin-3-yl]ethynyl]phenyl] pyridine-2-carboxamide] the same measures were 23.2 nM, 6320 nM and 0.16 nM.
For `CN1CC[C@@](O)(C#Cc2cccc(-c3nc(C(N)=O)c(Cl)cc3F)c2)C1=O` [Example 60, 3-chloro-5-fluoro-6-[3-[2-[(3R)-3-hydroxy-1-methyl-2-oxo-pyrrolidin-3-yl]ethynyl]phenyl] pyridine-2-carboxamide] the same measures were 1390 nM, not below 20000 nM and 5.61 nM.
With `CN1CC[C@@](O)(C#Cc2cccc(-c3cnc(N)c(C(N)=O)n3)c2)C1=O` [Example 62, 3-amino-6-[3-[2-[(3R)-3-hydroxy-1-methyl-2-oxo-pyrrolidin-3-yl]ethynyl]phenyl] pyrazine-2-carboxamide], the IC50 in assay [1] (Homo sapiens) was found to be 11.5 nM; in assay [3] (Homo sapiens, HeLa), 1000 nM. In assay [2], this molecule came in with a Ki of 0.11 nM.
In the case of `CN1CC[C@@](O)(C#Cc2cccc(-c3nc(C(N)=O)cc(-c4cncn4C)n3)c2)C1=O` [Example 66, 2-[3-[2-[(3R)-3-hydroxy-1-methyl-2-oxo-pyrrolidin-3-yl]ethynyl]phenyl]-6-(3-methylimidazol-4-yl) pyrimidine-4-carboxamide], the half-inhibitory concentration (IC50) in assay [1] (Homo sapiens) was 139 nM; in assay [3] (Homo sapiens, HeLa), not below 20000 nM. Moreover, in assay [2], the inhibition constant Ki was 0.16 nM.
As for `CCn1nccc1-c1cc(C(N)=O)nc(-c2cccc(C#C[C@]3(O)CCN(C)C3=O)c2)n1` [Example 67, 6-(2-ethylpyrazol-3-yl)-2-[3-[2-[(3R)-3-hydroxy-1-methyl-2-oxo-pyrrolidin-3-yl]ethynyl]phenyl] pyrimidine-4-carboxamide], the half-maximal inhibitory concentration (IC50) in assay [1] was 21.8 nM; in assay [3], not below 20000 nM. For the same molecule, affinity in assay [2] (purified NIK 0.5 nM, 10 μM ATP, pH 7.2, Ki from Morrison's quadratic equation) was put at a Ki of 0.08 nM.
As for `CN1CC[C@@](O)(C#Cc2cccc(-c3nc(C(N)=O)cc(-c4ccn(C)n4)n3)c2)C1=O` [Example 68, 2-[3-[2-[(3R)-3-hydroxy-1-methyl-2-oxo-pyrrolidin-3-yl]ethynyl]phenyl]-6-(1-methylpyrazol-3-yl) pyrimidine-4-carboxamide], the IC50 is 89.4 nM in assay [1] (Homo sapiens) and not below 20000 nM in assay [3] (Homo sapiens, HeLa). The Ki in assay [2] amounted to 0.53 nM.
For `CN1CC[C@@](O)(C#Cc2cccc(-c3nc(C(N)=O)cc(-c4ccn[nH]4)n3)c2)C1=O` [Example 69, 2-[3-[2-[(3R)-3-hydroxy-1-methyl-2-oxo-pyrrolidin-3-yl]ethynyl]phenyl]-6-(1H-pyrazol-5-yl)pyrimidine-4-carboxamide] the same measures were 206 nM, not below 20000 nM and 0.6 nM.
For `CN1CC[C@@](O)(C#Cc2cccc(-c3nc(C(N)=O)cc(-n4ccnc4)n3)c2)C1=O` [Example 70, 2-[3-[2-[(3R)-3-hydroxy-1-methyl-2-oxo-pyrrolidin-3-yl]ethynyl]phenyl]-6-imidazol-1-yl-pyrimidine-4-carboxamide] the same measures were 79 nM, not below 20000 nM and 0.94 nM.
Taken in the same sequence, the figures for `Cc1ccnn1-c1cc(C(N)=O)nc(-c2cccc(C#C[C@]3(O)CCN(C)C3=O)c2)n1` [Example 71, 2-[3-[2-[(3R)-3-hydroxy-1-methyl-2-oxo-pyrrolidin-3-yl]ethynyl]phenyl]-6-(5-methylpyrazol-1-yl) pyrimidine-4-carboxamide] were 8.94 nM, not below 20000 nM and 0.18 nM.
As to `CN1CC[C@@](O)(C#Cc2cccc(-c3nc(C(N)=O)c(N)c(-n4cccn4)n3)c2)C1=O` [Example 72, 5-amino-2-[3-[2-[(3R)-3-hydroxy-1-methyl-2-oxo-pyrrolidin-3-yl]ethynyl]phenyl]-6-pyrazol-1-yl-pyrimidine-4-carboxamide], the IC50 in assay [1] (Homo sapiens) was 6.43 nM; in assay [3] (Homo sapiens, HeLa) it was 6320 nM. The Ki in assay [2] amounted to 0.05 nM.
Consider `CN1CC[C@@](O)(C#Cc2cccc(-c3nc(C(N)=O)cc4c3cnn4C)c2)C1=O` [Example 74, 4-[3-[2-[(3R)-3-hydroxy-1-methyl-2-oxo-pyrrolidin-3-yl]ethynyl]phenyl]-1-methyl-pyrazolo[4,3-c]pyridine-6-carboxamide], for which the half-inhibitory concentration (IC50) in assay [1] (Homo sapiens) was 60.2 nM; in assay [3] (Homo sapiens, HeLa), not below 20000 nM. For the same molecule, the Ki in assay [2] came to 0.53 nM.
Turning to `Cc1cnc2c(-c3cccc(C#C[C@]4(O)CCN(C)C4=O)c3)nc(C(N)=O)cn12` [Example 75, 8-[3-[2-[(3R)-3-hydroxy-1-methyl-2-oxo-pyrrolidin-3-yl]ethynyl]phenyl]-3-methyl-imidazo[1,2-a]pyrazine-6-carboxamide], the IC50 in assay [1] (Homo sapiens) is 66.8 nM; in assay [3] (Homo sapiens, HeLa), not below 20000 nM. For the same molecule, in assay [2], the Ki worked out at 0.38 nM.
For `Cc1cn2cc(C(N)=O)nc(-c3cccc(C#C[C@]4(O)CCN(C)C4=O)c3)c2n1` [Example 76, 8-[3-[2-[(3R)-3-hydroxy-1-methyl-2-oxo-pyrrolidin-3-yl]ethynyl]phenyl]-2-methyl-imidazo[1,2-a] pyrazine-6-carboxamide] the same measures were 101 nM, not below 20000 nM and 0.86 nM.
Taken in the same sequence, the figures for `CN1CC[C@@](O)(C#Cc2cc3c(c(-c4cccc(C(N)=O)n4)c2)OCC3)C1=O` [Example 77, 6-[5-[2-[(3R)-3-hydroxy-1-methyl-2-oxo-pyrrolidin-3-yl]ethynyl]-2,3-dihydrobenzofuran-7-yl] pyridine-2-carboxamide] were 247 nM, not below 20000 nM and 0.99 nM.
Taken in the same sequence, the figures for `CN1CC[C@@](O)(C#Cc2cccc(-c3cc4c(Cl)c[nH]c4c(C(N)=O)n3)c2)C1=O` [Example 78, 3-chloro-5-[3-[2-[(3R)-3-hydroxy-1-methyl-2-oxo-pyrrolidin-3-yl]ethynyl]phenyl]-1H-pyrrolo[2,3-c]pyridine-7-carboxamide] were 8.3 nM, 15700 nM and 0.1 nM.
In the case of `CN1CC[C@@](O)(C#Cc2cccc(-c3nc(C(N)=O)c(NC4COC4)cc3F)c2)C1=O` [Example 79, 5-fluoro-6-[3-[2-[(3R)-3-hydroxy-1-methyl-2-oxo-pyrrolidin-3-yl]ethynyl]phenyl]-3-(oxetan-3-ylamino)pyridine-2-carboxamide], the IC50 in assay [1] (Homo sapiens) was 9.86 nM; in assay [3] (Homo sapiens, HeLa), not below 20000 nM. For the same molecule, in assay [2], affinity was put at a Ki of 0.05 nM.

For orientation: IC50 means the concentration at which inhibition is half-maximal. What is called Ki is the equilibrium dissociation constant of an inhibitor or competing ligand from its target. The low end stands for a stronger hold on the target, the high end for a looser hold on the target.

Source of the values: patent US20160185797A1, “ALKYNYL ALCOHOLS AND METHODS OF USE” (Genentech, Inc., priority 2013, published 2016).
